Experimental data as given in patent US20120059162A1, “FUSED IMIDAZOLE DERIVATIVE HAVING TTK INHIBITORY ACTION” (Oncotherapy Science, Inc., priority 2009, published 2012).
Where two headings read alike, the source gives them in different places.

Tested on: A549
Test: A549 assay: screening of cancer cell growth inhibiting compound
Assay type: cell-based
Conditions: Homo sapiens
Procedure: Screening of Cancer Cell Growth Inhibiting Compound
A cell suspension solution (RERF-LC-AI, A549: 1×10^4/ml, MRC5: 3×10^4/ml and 1×10^5/ml) adjusted to an appropriate concentration with D-MEM (hereinafter, referred to as a culture solution and manufactured by Nacalai Tesque Inc.) supplemented with 10% FBS (HyClone) was added to the wells of a 96-well plate (hereinafter, well plate) at a rate of 100 μL/well and incubated in a CO2 incubator at 37° C. for a day. […] Next, cells were added to each well of the well plate prepared and the above compound dilution solution was added at a rate of 100 μL/well to obtain 200 μL/well. Thereafter, the cells were incubated in the CO2 incubator at 37° C. for further three days. To each well of the well plate, 10 μL of a WST-8 kit (Kishida Chemical Co., Ltd.) solution for counting the number of cells was added and a color reaction was performed in the CO2 incubator for 1 to 4 hours. After the absorbance at 450 nm (reference wavelength: 620 nm) was measured by a microplate reader, suppressing action of the test substance was calculated based on the absorbance value in the absence of a test substance.

[1] = 72 h, A549 cells, three days, WST-8, read-out: A549 IC50
[2] = A549, 72 h, read-out: A549 IC50 (μM)

| Compound | IC50 [1] [µM] | IC50 [2] [µM] |
| --- | --- | --- |
| CC(C)CNc1nc(-c2ccsc2)cn2c(-c3ccc(C(=O)NC4CC4)cc3)cnc12 [Example 1-103] | 0.5 to 1 | – |
| CC(C)CNc1nc(-c2ccc(C(N)=O)cc2)cn2c(-c3ccc(C(=O)NC4CC4)cc3)cnc12 [Example 1-151] | 0.05 to 0.5 | – |
| CC(C)CNc1nc(-c2cccc(C(=O)N3CCN(C)CC3)c2)cn2c(-c3ccc(C(=O)NC4CC4)cc3)cnc12 [Example 1-144] | 1 to 10 | – |
| CC(C)CNc1nc(CCc2ccc(C(=O)O)cc2)cn2c(-c3ccc(C(=O)NC4CC4)cc3)cnc12 [Example 1-175] | 0.05 to 0.5 | – |
| CC(C)CNc1nc(-c2ccncc2)cn2c(-c3ccc(C(=O)NC4CC4)cc3)cnc12 [Example 1-111] | 0.05 to 0.5 | – |
| CC(C)CNc1nc(-c2ccccc2)cn2c(-c3ccc(C(=O)NC4CC4)cc3)cnc12 [Example 1-101] | – | 0.5 to 1 |
| CC(C)CNc1nc(-c2ccc(NC3CCOCC3)cc2)cn2c(-c3ccc(C(=O)NC4CC4)cc3)cnc12 [Example 1-170] | 1 to 10 | – |
| CC(C)CNc1nc(-c2cccc(NC(=O)N3CCN(C)CC3)c2)cn2c(-c3ccc(C(=O)NC4CC4)cc3)cnc12 [Example 1-154] | 1 to 10 | – |
| CC(C)CNc1nc(-c2ccc(CNS(C)(=O)=O)cc2)cn2c(-c3ccc(C(=O)NC4CC4)cc3)cnc12 [Example 1-119] | 0.5 to 1 | – |
| CC(C)CNc1nc(-c2ccc3occc(=O)c3c2)cn2c(-c3ccc(C(=O)NC4CC4)cc3)cnc12 [Example 1-110] | 0.5 to 1 | – |
| CC(C)CNc1nc(-c2ccc(C(=O)NCCS(C)(=O)=O)cc2)cn2c(-c3ccc(C(=O)NC4CC4)cc3)cnc12 [Example 1-149] | 1 to 10 | – |
| CC(C)CNc1nc(-c2ccc(NC(=O)NCc3ccco3)cc2)cn2c(-c3ccc(C(=O)NC4CC4)cc3)cnc12 [Example 1-118] | 0.5 to 1 | – |
| CC(C)CNc1nc(-c2cccc(NC3CCOCC3)c2)cn2c(-c3ccc(C(=O)NC4CC4)cc3)cnc12 [Example 1-167] | 0.5 to 1 | – |
| CC(C)CNc1nc(-c2cccc(NC(=O)N3CCOCC3)c2)cn2c(-c3ccc(C(=O)NC4CC4)cc3)cnc12 [Example 1-155] | 1 to 10 | – |
| O=C(NC1CC1)c1ccc(-c2cnc3c(NCC4CCOCC4)nccn23)cc1 [Example 1-1, N-cyclopropyl-4-(8-((tetrahydro-2H-pyran-4-yl)methylamino)imidazo[1,2-a]pyrazin-3-yl)benzamide] | – | 1 to 10 |
| O=C(NC1CC1)c1ccc(-c2cnc3c(NCC4CCOCC4)nc(C=C4CCCCC4)cn23)cc1 [Example 1-248] | 1 to 10 | – |
| CC(C)CNc1nc(-c2ccc(NC(=O)N3CCN(C)CC3)cc2)cn2c(-c3ccc(C(=O)NC4CC4)cc3)cnc12 [Example 1-160] | 1 to 10 | – |
| CC(C)CNc1nc(-c2cccc(C(=O)NCCS(C)(=O)=O)c2)cn2c(-c3ccc(C(=O)NC4CC4)cc3)cnc12 [Example 1-141] | 1 to 10 | – |
| CCCNc1nccn2c(-c3ccc(C(=O)NC4CC4)cc3)cnc12 [Example 1-37] | – | 1 to 10 |
| CC(C)CNc1nc(-c2cccc(C(N)=O)c2)cn2c(-c3ccc(C(=O)NC4CC4)cc3)cnc12 [Example 1-143] | 0.5 to 1 | – |
| CC(C)CNc1nc(-c2cccc(C(=O)NCCCN(C)C)c2)cn2c(-c3ccc(C(=O)NC4CC4)cc3)cnc12 [Example 1-122] | 1 to 10 | – |

| Compound | IC50 [1] [µM] | IC50 [2] [µM] |
| --- | --- | --- |
| CC(C)CNc1nc(-c2cccc(C#N)c2)cn2c(-c3ccc(C(=O)NC4CC4)cc3)cnc12 [Example 1-106] | 0.5 to 1 | – |
| N#Cc1ccc(-c2cn3c(-c4ccc(C(=O)NC5CC5)cc4)cnc3c(NCC3CCOCC3)n2)cc1F [Example 1-246] | 0.05 to 0.5 | – |
| CC(C)CCNc1nccn2c(-c3ccc(C(=O)NC4CC4)cc3)cnc12 [Example 1-43] | – | 1 to 10 |
| CC(C)CNc1nc(-c2cccc(NC(=O)CCCN3CCOCC3)c2)cn2c(-c3ccc(C(=O)NC4CC4)cc3)cnc12 [Example 1-158] | 0.5 to 1 | – |
| CC(C)CNc1nc(-c2cccc(C(=O)NCCN3CCOCC3)c2)cn2c(-c3ccc(C(=O)NC4CC4)cc3)cnc12 [Example 1-139] | 0.5 to 1 | – |
| O=C(NC1CC1)c1ccc(-c2cnc3c(NCC4CC4)nccn23)cc1 [Example 1-36] | – | 1 to 10 |
| CC(C)CNc1nc(-c2ccc(S(=O)(=O)N3CCCC3)cc2)cn2c(-c3ccc(C(=O)NC4CC4)cc3)cnc12 [Example 1-115] | 1 to 10 | – |
| COCCNC(=O)c1ccc(-c2cn3c(-c4ccc(C(=O)NC5CC5)cc4)cnc3c(NCC(C)C)n2)cc1 [Example 1-148] | 0.5 to 1 | – |
| O=C(NC1CC1)c1ccc(-c2cnc3c(NCC4CCOCC4)nc(-c4ccncc4)cn23)cc1 [Example 1-179] | 0.05 to 0.5 | – |
| CC(C)CNc1nc(-c2cccc(NCCCN)c2)cn2c(-c3ccc(C(=O)NC4CC4)cc3)cnc12 [Example 1-166] | 1 to 10 | – |
| CC(C)CNc1nc(-c2ccccc2N)cn2c(-c3ccc(C(=O)NC4CC4)cc3)cnc12 [Example 1-123] | 0.05 to 0.5 | – |
| CC(C)CNc1nc(-c2ccc(S(=O)(=O)C(C)C)cc2)cn2c(-c3ccc(C(=O)NC4CC4)cc3)cnc12 [Example 1-116] | 0.5 to 1 | – |
| CC(C)CNc1nc(-c2ccc(NCCCN)cc2)cn2c(-c3ccc(C(=O)NC4CC4)cc3)cnc12 [Example 1-169] | 1 to 10 | – |
| Cc1nc(C)c(-c2cc(NCC(C)C)c3ncc(-c4ccc(C(=O)NC5CC5)cc4)n3n2)s1 [Example 2-8] | 0.5 to 1 | – |
| C/C=C/c1cn2c(-c3ccc(C(=O)NC4CC4)cc3)cnc2c(NCC2CCOCC2)n1 [Example 1-243] | 0.5 to 1 | – |
| CC(C)CNc1nc(-c2ccc(O)c(Cl)c2)cn2c(-c3ccc(C(=O)NC4CC4)cc3)cnc12 [Example 1-120] | 1 to 10 | – |
| CC(C)CNc1nc(-c2cccc(NC(=O)[C@@H](N)CO)c2)cn2c(-c3ccc(C(=O)NC4CC4)cc3)cnc12 [Example 1-159] | 1 to 10 | – |
| CC(C)CNc1nc(-c2cccnc2)cn2c(-c3ccc(C(=O)NC4CC4)cc3)cnc12 [Example 1-107] | 0.5 to 1 | – |
| CC(C)CNc1cc(-c2ccccc2)nn2c(-c3ccc(C(=O)NC4CC4)cc3)cnc12 [Example 2-7] | – | 0.5 to 1 |
| CC(C)CNc1nc(-c2ccc(C(=O)c3ccccc3)cc2)cn2c(-c3ccc(C(=O)NC4CC4)cc3)cnc12 [Example 1-125] | 1 to 10 | – |
| O=C(NC1CC1)c1ccc(-c2cnc3c(NCC4CCOCC4)nc(CC4CCCCC4)cn23)cc1 [Example 1-250] | 1 to 10 | – |

| Compound | IC50 [1] [µM] | IC50 [2] [µM] |
| --- | --- | --- |
| CC(C)CNc1nc(-c2cccc(NCC3CCN(C)CC3)c2)cn2c(-c3ccc(C(=O)NC4CC4)cc3)cnc12 [Example 1-168] | 0.5 to 1 | – |
| O=C(NC1CC1)c1ccc(-c2cnc3c(NCC4CCOCC4)nc(C4=CCNCC4)cn23)cc1 [Example 1-247] | 1 to 10 | – |
| COCCNC(=O)c1cccc(-c2cn3c(-c4ccc(C(=O)NC5CC5)cc4)cnc3c(NCC(C)C)n2)c1 [Example 1-140] | 0.05 to 0.5 | – |
| CC(C)CNc1nc(-c2ccc(OCCN3CCOCC3)cc2)cn2c(-c3ccc(C(=O)NC4CC4)cc3)cnc12 [Example 1-117] | 1 to 10 | – |
| COCC(=O)Nc1ccc(-c2cn3c(-c4ccc(C(=O)NC5CC5)cc4)cnc3c(NCC(C)C)n2)cc1 [Example 1-162] | 1 to 10 | – |
| CC(=O)Nc1ccc(-c2cn3c(-c4ccc(C(=O)NC5CC5)cc4)cnc3c(NCC(C)C)n2)cc1 [Example 1-163] | 0.5 to 1 | – |
| N#Cc1ccc(-c2cn3c(-c4ccc(C(=O)NC5CC5)cc4)cnc3c(NCC3CCOCC3)n2)cn1 [Example 1-244] | 0.05 to 0.5 | – |
| N#Cc1ccc(-c2cn3c(-c4ccc(C(=O)NC5CC5)cc4)cnc3c(NCC3CCOCC3)n2)c(N)c1 [Example 1-245] | 0.05 to 0.5 | – |
| CC(C)CNc1nc(C2=CCCC2)cn2c(-c3ccc(C(=O)NC4CC4)cc3)cnc12 [Example 1-108] | 1 to 10 | – |
| CC(C)CNc1nc(-c2cccc(N)c2)cn2c(-c3ccc(C(=O)NC4CC4)cc3)cnc12 [Example 1-124] | 0.5 to 1 | – |
| CC(C)CNc1nc(-c2ccc(C(=O)NCCN3CCOCC3)cc2)cn2c(-c3ccc(C(=O)NC4CC4)cc3)cnc12 [Example 1-147] | 1 to 10 | – |
| CC(C)CNc1nc(-c2cccc(CN3CCOCC3)c2)cn2c(-c3ccc(C(=O)NC4CC4)cc3)cnc12 [Example 1-127] | 1 to 10 | – |
| CC(C)CNc1nc(-c2ccc(NC(=O)N3CCCC3)cc2)cn2c(-c3ccc(C(=O)NC4CC4)cc3)cnc12 [Example 1-121] | 0.5 to 1 | – |
| CC(=O)N1CC=C(c2cn3c(-c4ccc(C(=O)NC5CC5)cc4)cnc3c(NCC3CCOCC3)n2)CC1 [Example 1-249] | 0.5 to 1 | – |
| CC(C)CNc1nc(-c2cccc(C(=O)NCCCN3CCN(C)CC3)c2)cn2c(-c3ccc(C(=O)NC4CC4)cc3)cnc12 [Example 1-138] | 1 to 10 | – |
| CC(C)CNc1nc(-c2ccc(N)cc2)cn2c(-c3ccc(C(=O)NC4CC4)cc3)cnc12 [Example 1-114] | 0.05 to 0.5 | – |
| CC(=O)Nc1cccc(-c2cn3c(-c4ccc(C(=O)NC5CC5)cc4)cnc3c(NCC(C)C)n2)c1 [Example 1-157] | 0.5 to 1 | – |
| COCC(=O)Nc1cccc(-c2cn3c(-c4ccc(C(=O)NC5CC5)cc4)cnc3c(NCC(C)C)n2)c1 [Example 1-156] | 0.5 to 1 | – |
| CC(C)CNc1nc(-c2ccc(NC(=O)N3CCOCC3)cc2)cn2c(-c3ccc(C(=O)NC4CC4)cc3)cnc12 [Example 1-161] | 1 to 10 | – |
| CC(C)CNc1nc(-c2ccc(C(=O)N3CCOCC3)cc2)cn2c(-c3ccc(C(=O)NC4CC4)cc3)cnc12 [Example 1-153] | 1 to 10 | – |
| O=C(NC1CC1)c1ccc(-c2cnc3c(NCC4CCOCC4)nc(-c4ccsc4)cn23)cc1 [Example 1-177] | 0.05 to 0.5 | – |
